Ends that are not written are not given here.
Experiments:
[1] = system: Escherichia coli NCTC 8196; assay: microbe, parasite or virus in culture; type: cell-based; conditions: broth microdilution (CLSI), Mueller–Hinton broth, 37 °C, peptide 0.125 to […], no visible growth, triplicate
Experimental: (§1) Antimicrobial activity of peptides was examined against three reference strains: Staphylococcus aureus NCTC 4163, Escherichia coli NCTC 8196 and Pseudomonas aeruginosae NCTC 6749 dedicated for the determination of antibacterial activity. The bacterial strains were stored in glycerol stock (Sigma-Aldrich, St. Louis, MO, USA) at −80 °C. Before testing, the strains were cultured aerobically in Tryptic Soy Agar (BD DIFCO, Franklin Lakes, NJ, USA) at 37 °C for 20 h. The susceptibility of microorganisms to the peptides was determined by the broth microdilution assay according to the procedures outlined by CLSI [49]. […] In order to prepare the bacterial suspension, an overnight culture of bacteria in Tryptic Soy Broth (BD DIFCO, Franklin Lakes, NJ, USA) was diluted in sterile saline to a final concentration of approximately 10^7 CFU/mL of bacteria. Aliquots (5 µL) of bacterial suspension were added to each peptide solution. The sterility control (containing the tested peptide in broth) and the growth control (containing the reference strain in broth without the tested peptide) were also set up. The plates were incubated at 37 °C under aerobic conditions. The results are expressed as the minimal inhibitory concentration (MIC) of the compounds in question. The MIC was defined as the lowest concentration at which no visible growth of bacteria (no turbidity) was observed. The assay was performed in triplicate.

[2] = system: Pseudomonas aeruginosae NCTC 6749; assay: microbe, parasite or virus in culture; type: cell-based; conditions: broth microdilution (CLSI), Mueller–Hinton broth, 37 °C, peptide 0.125 to […], no visible growth, triplicate
Experimental: as §1

[3] = system: Staphylococcus aureus NCTC 4163; assay: microbe, parasite or virus in culture; type: cell-based; conditions: broth microdilution (CLSI), Mueller–Hinton broth, 37 °C, peptide 0.125 to […], no visible growth, triplicate
Experimental: as §1

[4] = Circular dichroism spectroscopy, relative α-helix fraction; type: physicochemical; conditions: CD, peptide 0.15 mg/mL, 25 °C, three scans averaged
Experimental: Circular dichroism spectroscopy was applied to evaluate the conformational changes of peptides induced by membrane-mimetic environments. The secondary structures of MP and some of its MP analogs (Table 4) were determined in water, 50% 2,2,2-trifluoroethanol (TFE) and 0.1 M Tris buffer with the addition of 50 mM SDS. The relative α-helix fraction (fH) values presented in Table 4, calculated from the values of mean residue ellipticity at 222 nm, reflect the ability of peptides to adopt helical structure in the tested environments.
Circular dichroism (CD) spectra of peptides were recorded on a Jasco J-815 spectropolarimeter (Jasco Int. Co., Ltd., Tokyo, Japan). The CD spectra were acquired for peptides in a concentration of 0.15 mg/mL in water, 50% 2,2,2-trifluoroethanol (TFE) or 0.1 M tris(hydroxymethyl)aminomethane (Tris) buffer (pH 7.01) with the addition of 50 mM SDS (sodium dodecylsulphate) in 0.1 cm path length cuvettes. Measurements were taken at 25 °C in a spectral range of 193–260 nm with a bandwidth of 1 nm and response of 1 s. The spectra were averaged after three scans. Ellipticity was measured in mdeg units and converted to mean residue ellipticity (Θ). The relative helix content (fH) was calculated from the mean residue ellipticity values at 222 nm using the method proposed by Rohl and Baldwin [50] and described previously. Helical wheel projections (Figure 3) were made with HeliQuest https://heliquest.ipmc.cnrs.fr/ (accessed on 1 June 2022).

[5] = cited from earlier work
Text: However, comparing their cytotoxic properties with other MP analogs known from the previous literature reports appears to be difficult due to the different cell lines used in cytotoxicity assays.

HT29 cells = assay: MTT cytotoxicity assay; type: cell-based, human; conditions: for Effect on cell viability up to 10 µM: 24 h, peptide up to 10 µM; for LD50 (peptide concentration sufficient to kill 50% of the peptide-treated cells): 24 h incubation, 0.05–50 µM, from regression curves of cell viability, triplicate
Experimental: (§2) The cytotoxicity of the selected MP analogs, MP-RIP and RIP-MP, was determined against two human cell lines. The viability of HT29 and HCT116 cells incubated with various concentrations of MP-RIP and RIP-MP was assessed by the MTT assay (Figure 4). […] Moreover, based on the regression curves of cell viability, lethal doses of MP analogs sufficient to kill 50% of the peptide-treated cells (LD50) were calculated. […] The viability of the HT29 cells indicates relatively low cytotoxicity of both analogs at a concentration corresponding to the MIC value against S. aureus. In the case of HCT116 cells, the above relationships were less evident.
(§3) Human cell lines HT29 (ATCC cat. # HTB-38) and HCT116 (ATCC cat. # CCL-247) were cultured in McCoy (HT29) or Dulbecco’s Modified Eagle’s (DMEM) medium (HCT116), supplemented with 10% fetal bovine serum (FBS), penicillin (100 U/mL) and streptomycin (100 µg/mL). Cultures were conducted at 37 °C in humidified atmosphere of 5% CO2. Cells were cultured for 24 h before initiation of the experiments. The cell viability was determined by the 3-(4, 5-dimethylthazol-2-yl)-2, 5-diphenyl tetrazolium bromide (MTT) assay. Briefly, HT29 or HCT116 cells were seeded in 96-well plates to a density of 10^5 cells/well in 0.2 mL of above-specified culture media. After 24 h, the following concentrations of peptides were added to wells: 0.05, 0.1, 0.5, 1, 5, 10, 25, 50 µM. As a negative control, cells were treated with 0.9% NaCl. After 24 h of incubation (5% CO2, 37 °C), 15 µL MTT solution was added into each well to reach the final concentration of […]. After further incubation for 2 h (5% CO2, 37 °C) the cells were centrifuged for 3 min at 4 °C and the medium was removed. Formazan crystals present in mitochondria of metabolically active cells were dissolved with 100 μL of dimethylsulfoxide (DMSO), and the dye concentration was determined at 570 nm wavelength. Cell viability was expressed as a percentage (mean value ± SEM) of those cells treated with 0.9% NaCl as negative control. Lethal doses, which correspond to peptide concentrations sufficient to kill 50% of the peptide-treated cells (LD50), were determined with GraphPad Prism 7.0 software (GraphPad Software Inc., La Jolla, CA, USA). The assay was performed in triplicate.

HCT116 cells = assay: MTT cytotoxicity assay; type: cell-based, human; conditions: for Effect on cell viability up to 10 µM: 24 h, peptide up to 10 µM; for LD50 (peptide concentration sufficient to kill 50% of the peptide-treated cells): 24 h incubation, 0.05–50 µM, from regression curves of cell viability, triplicate
Experimental: as §2, §3

| Substance | MIC E. coli [1] | MIC P. aeruginosae [2] | MIC S. aureus [3] | Relative α-helix fraction (fH), 0.1 M Tris + 50 mM SDS ([4]; 0.1 M Tris buffer pH 7.01 + 50 mM SDS, from mean residue ellipticity at 222 nm) | Relative α-helix fraction (fH), water ([4]; water, from mean residue ellipticity at 222 nm (Rohl and Baldwin)) | Fold lower cytotoxicity than MP [5] | Effect on cell viability up to 10 µM (HT29 cells) | LD50 (peptide concentration sufficient to kill 50% of the peptide-treated cells) (HT29 cells) | Effect on cell viability up to 10 µM (HCT116 cells) | LD50 (peptide concentration sufficient to kill 50% of the peptide-treated cells) (HCT116 cells) |
| --- | --- | --- | --- | --- | --- | --- | --- | --- | --- | --- |
| LIKKALAALAKLNI-NH2 [retroMP, reference compound] | 256 µg/mL | 256 µg/mL | >256 µg/mL | 0.16 | 0.19 | 3.5 fold | – | – | – | – |
| YSPWTNFINLKALAALAKKIL-NH2 [RIP-MP] | – | >256 µg/mL | – | – | – | – | did not substantially affect the viability | 30.2 µM | did not substantially affect the viability | 17.0 µM |
| INLKALAALAKKILYSPWTNF-NH2 [MP-RIP] | – | >256 µg/mL | – | – | – | – | did not substantially affect the viability | 38.0 µM | did not substantially affect the viability | 13.2 µM |
